Patent publication US10174033B2, “N6-substituted adenosine derivatives and N6-substituted adenine derivatives and uses thereof” (INSTITUTE OF MATERIA MEDICA, CHINESE ACADEMY OF MEDICAL …, priority 2009, dated 2019)

Tested on: male ICR-mice
Experiment: Potentiation of sodium pentobarbital sleeping time test
Assay type: in vivo
Procedure: Effects of N^6-substituted adenosine derivatives and/or N^6-substituted adenine derivatives on sodium pentobarbital-induced sleeping time in mice.
Name of Experiment: Potentiation of sodium pentobarbital sleeping time test.
Method of Experiment: Groups of 8-10 male ICR-mice with an average weight of 18-22 g were used. They were dosed orally or i.p. with the test compound or the vehicle. Thirty min after i.p. injection or 60 min after oral dosing 38 mg/kg sodium pentobarbital were injected intravenously. The latency and duration of sleep (loss of righting reflex) were recorded. The percentage of prolongation of sleeping time was calculated as: [(sleeping time of experimental group)−(sleeping time of control group)]/(sleeping time of control group)×100%.

[1] = oral, 5 mg/kg, 38 mg/kg sodium pentobarbital 60 min later
[2] = oral, 2.5 mg/kg, 38 mg/kg sodium pentobarbital 60 min later
[3] = intraperitoneal, 5 mg/kg, 38 mg/kg sodium pentobarbital 30 min later
[4] = intraperitoneal, 1 mg/kg, 38 mg/kg sodium pentobarbital 30 min later

Row | Compound | Sleep prolonging rate (%) [1] [%] | further results
1 | CC[C@@H](Nc1ncnc2c1ncn2[C@@H]1O[C@H](COc2ccccc2[N+](=O)[O-])C(O)[C@@H]1O)c1ccccc1 (stereo partly drawn) [Example 85, N^6-[(R)-1-(phenyl)-propyl]-adenosine-5′-o-nitrophenyl ether] | 87 | 
2 | CCC(Nc1ncnc2c1ncn2[C@@H]1O[C@H](CO)[C@@H](O)[C@H]1O)c1ccccc1 (mixture of isomers) [Example 72, N^6-[(±)-1-(phenyl)-propyl]-adenosine] |  | Sleep prolonging rate (%) [2]: 135%
3 | OC[C@H]1O[C@@H](n2cnc3c(NC(Cc4ccccc4)c4ccccc4)ncnc32)C(O)C1O (mixture of isomers) [Example 94, N^6-[(±)-1-(1,2-diphenyl)-ethyl]-adenosine] | 36 | 
4 | N^6-[(S)-1-(phenyl)-propyl]-adenosine-5′-decanoic ether [Example 84] | 4 | 
5 | CCCOC[C@H]1O[C@@H](n2cnc3c(N[C@@H](CC)c4ccccc4)ncnc32)C(O)C1O (stereo partly drawn) [Example 83, N^6-[(S)-1-(phenyl)-propyl]-adenosine-5′-propyl ether] | 4 | 
6 | OC[C@H]1O[C@@H](n2cnc3c(NCc4cccs4)ncnc32)[C@H](O)[C@@H]1O [Example 19, N^6-(2-thiopheneylmethyl)-adenosine] |  | Sleep prolonging rate (%) [3]: 12%
7 | CCCOC[C@H]1O[C@@H](n2cnc3c(NC(C)c4cc(OC)c(OC)c(OC)c4)ncnc32)C(O)C1O (mixture of isomers) [Example 55, N^6-[(±)-1-(3,4,5-trimethoxyphenyl)-ethyl]-adenosine-5′-propyl ether] | 14 | 
8 | C[C@@H](Nc1ncnc2c1ncn2[C@@H]1O[C@H](CO)[C@@H](O)[C@H]1O)c1ccc(Cl)cc1 [Example 68, N^6-[(R)-1-(4-chlorophenyl)-ethyl]-adenosine] | 103 | 
9 | CC(C(O)c1ccccc1)N(C)c1ncnc2c1ncn2[C@@H]1O[C@H](CO)C(O)C1O (mixture of isomers) [Example 137, N^6-methyl-N^6-[(±)-2-(1-hydroxy-1-phenyl)-propyl]-adenosine] | 92 | 
10 | C[C@H]([C@@H](O)c1ccccc1)N(C)c1ncnc2c1ncn2[C@@H]1O[C@H](CO)C(O)C1O (stereo partly drawn) [Example 135, N^6-methyl-N^6-[2-(1S,2R)-(1-hydroxy-1-phenyl)-propyl]-adenosine] | 39 | 
11 | CC[C@H](Nc1ncnc2c1ncn2[C@@H]1O[C@H](COC(C)=O)C(OC(C)=O)C1OC(C)=O)c1ccccc1 (stereo partly drawn) [Example 79, N^6-[(S)-1-(phenyl)-propyl]-adenosine-2′,3′,5′-triacetate] | 41 | 
12 | CCC(Nc1ncnc2c1ncn2[C@@H]1O[C@H](CO)[C@@H](O)[C@H]1O)c1ccc(OC)cc1 (mixture of isomers) [Example 74, N^6-[(±)-1-(4-methoxyphenyl)-propyl]-adenosine] |  | Sleep prolonging rate (%) [2]: 86%
13 | CC[C@H](Nc1ncnc2c1ncn2[C@@H]1O[C@H](CO)[C@@H](O)[C@H]1O)c1ccccc1 [Example 78, N^6-[(S)-1-(phenyl)-propyl]-adenosine] |  | Sleep prolonging rate (%) [2]: 49%
14 | CCCC(=O)OCC1OC(n2cnc3c(NCc4ccc(OC(=O)CCC)c(OC)c4)ncnc32)C2OC(C)(C)OC12 (centres unmarked) [N^6-(3-methoxy-4-butanoyloxy-benzyl)-2′,3′-O-isopropylidene-adenosine-5′-butyrate] | 21 | 
15 | CC[C@H](Nc1ncnc2c1ncn2[C@@H]1O[C@H](COC(=O)/C=C/c2ccc(C)cc2)C(O)C1O)c1ccccc1 (stereo in doubt) [Example 82, N^6-[(S)-1-(phenyl)-propyl]-adenosine-5′-p-methyl-cinnamate] | 50 | 
16 | CC[C@@H](Nc1ncnc2c1ncn2[C@@H]1O[C@H](CO)[C@@H](O)[C@H]1O)c1ccccc1 [Example 75, N^6-[(R)-1-(phenyl)-propyl]-adenosine] |  | Sleep prolonging rate (%) [2]: 183%
17 | CN(Cc1ccccc1)c1ncnc2c1ncn2[C@@H]1O[C@H](CO)[C@@H](O)[C@H]1O [Example 133, N^6-methyl-N^6-benzyl-adenosine] | 27 | 
18 | CCCCCCCC(=O)OC[C@H]1O[C@@H](n2cnc3c(NCc4ccc5c(c4)OCO5)ncnc32)[C@H](O)[C@@H]1O [Example 32, N^6-(3,4-methylenedioxybenzyl)-adenosine-5′-caprylate] | 26 | 
19 | OC[C@H]1O[C@@H](n2cnc3c(NC4c5ccccc5-c5ccccc54)ncnc32)[C@H](O)[C@@H]1O [Example 98, N^6-(fluorene-9-yl)-adenosine] | 53 | 
20 | CCCC(Nc1ncnc2c1ncn2[C@@H]1O[C@H](CO)[C@@H](O)[C@H]1O)c1ccc(OC)cc1 (mixture of isomers) [Example 88, N^6-[(±)-1-(4-methoxyphenyl)-butyl]-adenosine] | 80 | 

Row | Compound | Sleep prolonging rate (%) [1] [%] | further results
21 | N^6-[(R)-1-(phenyl)-propyl]-2′,3′-O-isopropylidene-adenosine-5′-acetate | 18 | 
22 | O=C(O)[C@H](Cc1ccccc1)Nc1ncnc2c1ncn2[C@@H]1O[C@H](CO)C(O)C1O (some centres unmarked) [Example 102, N-(6-adenosine)-(L)-phenylalanine] |  | Sleep prolonging rate (%) [3]: 44%
23 | CCC[C@@H](Nc1ncnc2c1ncn2[C@@H]1O[C@H](CO)C(O)C1O)c1ccccc1 (stereo partly drawn) [Example 89, N^6-[(R)-(phenyl)-butyl]-adenosine] | 163 | 
24 | C[C@H](Nc1ncnc2c1ncn2[C@@H]1O[C@H](CO)[C@@H](O)[C@H]1O)c1ccc(Cl)cc1 [Example 69, N^6-[(S)-1-(4-chlorophenyl)-ethyl]-adenosine] | 33 | 
25 | C[C@H](Nc1ncnc2c1ncn2[C@@H]1O[C@H](CO)[C@@H](O)[C@H]1O)c1ccc(F)cc1 [Example 71, N^6-[(S)-1-(4-fluorophenyl)-ethyl]-adenosine] | 24 | 
26 | COC(=O)[C@@H](Cc1ccccc1)Nc1ncnc2c1ncn2[C@@H]1O[C@H](CO)C(O)C1O (some centres unmarked) [Example 105, N-(6-adenosine)-(D)-phenylalanine methyl ester] | 2 | 
27 | COc1cc(CNc2ncnc3c2ncn3[C@@H]2O[C@H](CO)C(O)C2O)cc(OC)c1OC (some centres unmarked) [Example 37, N^6-(3,4,5-trimethxoybenzyl)-adenosine] |  | Sleep prolonging rate (%) [4]: 112%
28 | C[C@H]([C@H](O)c1ccccc1)N(C)c1ncnc2c1ncn2[C@@H]1O[C@H](CO)C(O)C1O (stereo partly drawn) [Example 136, N^6-methyl-N^6-[2-(1R,2R)-(1-hydroxy-1-phenyl)-propyl]-adenosine] | 44 | 
29 | CCCOC[C@H]1O[C@@H](n2cnc3c(N[C@H](CC)c4ccccc4)ncnc32)C(O)C1O (stereo partly drawn) [Example 86, N^6-[(R)-1-(phenyl)-propyl]-adenosine-5′-propyl ether] | 318 | 
30 | CC[C@@H](Nc1ncnc2c1ncn2[C@@H]1O[C@H](COC(C)=O)C(OC(C)=O)C1OC(C)=O)c1ccccc1 (stereo partly drawn) [Example 76, N^6-[(R)-1-(phenyl)-propyl]-adenosine-2′,3′,5′-triacetate] | 339 | 
31 | Cc1ccc(CNc2ncnc3c2ncn3[C@H]2C[C@H](O)[C@@H](CO)O2)cc1 [Example 151, N^6-(p-methylbenzyl)-2′-deoxy-adenosine] | 34 | 
32 | CCCCCCCC(=O)OC[C@H]1O[C@@H](n2cnc3c(NC(C)c4cc(OC)c(OC)c(OC)c4)ncnc32)[C@H](O)[C@@H]1O (mixture of isomers) [Example 53, N^6-[(±)-1-(3,4,5-trimethoxyphenyl)-ethyl]-adenosine-5′-caprylate] | 130 | 
33 | OCCN(Cc1ccccc1)c1ncnc2c1ncn2[C@@H]1O[C@H](CO)[C@@H](O)[C@H]1O [Example 138, N^6-(2-hydroxyethyl)-N^6-benzyl-adenosine] | 18 | 
34 | CCOC(=O)[C@H](Cc1ccc(O)cc1)Nc1ncnc2c1ncn2[C@@H]1O[C@H](CO)C(O)C1O (some centres unmarked) [Example 109, N-(6-adenosine)-(L)-tyrosine ethyl ester] | 36 | 
35 | OC[C@H]1O[C@@H](n2cnc3c(N[C@@H](c4ccccc4)[C@H](O)c4ccccc4)ncnc32)C(O)C1O (stereo partly drawn) [Example 100, N^6-{(1R,2S)-[2-hydroxy-(1,2-diphenyl)]-ethyl}-adenosine] | 38 | 
36 | O=C(O)[C@H](Cc1c[nH]c2ccccc12)Nc1ncnc2c1ncn2[C@@H]1O[C@H](CO)C(O)C1O (some centres unmarked) [Example 112, N-(6-adenosine)-(D)-tryptophan] |  | Sleep prolonging rate (%) [3]: 89%
37 | OC[C@@H](Nc1ncnc2c1ncn2[C@@H]1O[C@H](CO)[C@@H](O)[C@H]1O)c1ccccc1 [Example 64, N^6-[(L)-2-(hydroxy)-1-(phenyl)-ethyl]-adenosine] | 67 | 
38 | CCOC(=O)[C@@H](Cc1ccc(O)cc1)Nc1ncnc2c1ncn2[C@@H]1O[C@H](CO)C(O)C1O (some centres unmarked) [Example 108, N-(6-adenosine)-(D)-tyrosine ethyl ester] | 32 | 
39 | OC[C@H]1O[C@@H](n2cnc3c(NCCc4ccc(O)c(O)c4)ncnc32)C(O)C1O (some centres unmarked) [Example 38] | 69 | Sleep prolonging rate (%) [4]: 98%
40 | OC[C@H](Nc1ncnc2c1ncn2[C@@H]1O[C@H](CO)C(O)C1O)[C@@H](O)c1ccccc1 (stereo partly drawn) [Example 41, N^6-[(1S,2S)-2-(1,3-dihydroxy-1-phenyl)-propyl]-adenosine] | 33 | 
